Laboratory results from US20050009868A1, “Retinoid receptor pan-antagonists for stimulating chondrogenesis” (priority 2001, published 2005).
Read-outs that look alike come from different tables or passages of the source. Blank lines part the entries; values can stand above or below the compound they belong to.

Experiments:
[1] = tested on: RA response element (pW1-βRARE3-Luc); experiment: Retinoic acid responsive reporter (pW1-βRARE3-Luc) luciferase assay in primary limb mesenchymal cells; type: cell-based, mouse; settings: for effect on RARE reporter activity (in words): concentration series
Protocol: (§1) Limb mesenchymal cells were harvested from embryonic age 11.25-11.75 mouse embryos as previously described (Weston et al., 2000). The cells were resuspended at a density of about 2.5×10^7 cells/ml prior to transfections, otherwise they were resuspended at 1.5×10^7 cells/ml. For transfection purposes, cells were mixed with a DNA/FuGene6 mixture in a 2:1 ratio. FuGene6-DNA mixtures were prepared according to the manufacturer's instructions (Roche Biomolecular). Briefly, 1 μg of reporter, 1 μg of expression vector and 0.05 μg of pRLSV40 (Promega) were mixed for a total of about 2 μg DNA in 100 μL of media and FuGene6. Fifty microlitres of the DNA mixture was transferred into a sterile 1.5 ml eppendorf tube, followed by 100 μl of cells. Cells were gently triturated and 10 μl was used to seed each single well of a 24-well culture dish. After 1.5 hrs in a humidified CO2 incubator, 1 ml of media containing compounds of interest was added to each well and was subsequently replaced 24 hours following transfection. All-trans RA (at-RA; Sigma), AGN193836 (Teng et al., 1996), AGN194301 (Teng et al., 1997) and AGN194310 (Johnson et al., 1999)(Allergan Inc.) were dissolved in 95% ethanol. SB202190 and SB203580 (Calbiochem) and H89 (Sigma) were dissolved in dimethyl sulfoxide (DMSO) (BDH). 8-(4-chlorophenylthio)-cAMP (pCPT-cAMP, Sigma) was dissolved in water just prior to use.
(§2) Analysis of reporter gene activity using the Dual Luciferase Assay System was done following the manufacturer's instructions (Promega). Briefly, approximately 48 hours following the transfections, cells were washed once with PBS and lysed in 100 μl of Passive Lysis Buffer for 20 minutes. Firefly and renilla luciferase activities were determined using 40 μl of lysate in a 96-well plate-reading luminometer (Molecular Devices). Alcian blue staining of cultures was carried out as described previously (Cash et al., 1997).

Sox9 mRNA = experiment: Northern blot of Sox9 mRNA in limb mesenchymal cultures; type: cell-based, mouse; settings: 1 μM, 2-day cultures
Protocol: Northern blots were carried out using total RNA from limb mesenchymal cultures, as previously described (Weston et al., 2000). Briefly, total RNA was extracted from cells cultured for 2, 4, 6 or 8 days. Cells were treated with media alone or with AGN 194301. Synthesis of the Col2a1 cDNA fragment used was as described previously (Weston et al., 2000). The Sox9 cDNA probe was made using an EST clone, GenBank accession number Al594348 (Research Genetics). The Sox9 fragment was released from pT7T3 using Eco RI and Not I.

[2] = tested on: primary limb mesenchymal cultures; settings: earlier work, Weston et al., 2000; cited from earlier work
pGL3(4×48) Sox9 reporter = experiment: Sox9 reporter (pGL3(4×48)) luciferase assay in transiently transfected primary limb mesenchymal cultures; type: cell-based, mouse; settings: for effect on the antagonist-induced increase in Sox9 reporter activity (in words): co-treatment with AGN194301 or AGN194310
Text: The Sox9 responsive reporter (herein referred to as the Sox9 reporter) was generated by subcloning a fragment containing a reiterated (4×48) Sox9 binding sequence coupled to the mouse Col2a1 minimal promoter (−89 to +6) into pGL3. The fragment containing the 4×48 repeat and minimal promoter was isolated as a BamH I/Hind III fragment from the original 4×48-p89Luc reporter plasmid previously described (Lefebvre et al., 1997), and was subcloned into the BgI II and Hind III sites of pGL3-basic (Promega) to generate pGL3(4×48). The reporter pW1-Col2-Luc was generated from the original p309i(182×2)βgeoCol2a1 (Zhou et al., 1995) by subcloning the regulatory region (consisting of a 309-bp promoter region and two tandem repeats of a 182-bp intron-1 fragment) into pW1 (Balkan et al., 1992) as an EcoR I/BamH I fragment. A BgI II fragment containing the luciferase gene isolated from pJD205 (de Wet et al., 1987) was subcloned into the BamH I site of pW1-Col2 to generate pW1-Col2-Luc. The pcDNA3-hSox9 expression vector was as described (Lefebvre et al., 1997). To generate a mutated form of hSox9, hSox9 was subcloned into pKSII (Stratagene) and serine 181 was replaced with alanine, using the Quick-Change XL system (Stratagene) with the following overlapping primers: 5′-[…]-3′, and 5′-[…]-3′. Following mutagenesis, the Sox9 mutant and wt Sox9 were subcloned into pcDNA3, and the serine-alanine conversion was confirmed by sequencing.
as §1, §2

[3] = tested on: primary limb mesenchymal cultures; experiment: Cartilage nodule formation in primary limb mesenchymal cultures (alcian blue staining); type: cell-based, mouse
Protocol: as §1, §2

IL-2 gene expression = settings: Koyama et al., 2000; read-out: IC50 for inhibition of IL-2 gene expression; cited from earlier work
[4] = 10 μM, versus untreated control cultures
[5] = day 4 alcian blue-stained cultures

Structure (SMILES): Cc1ccc(C2=CC(C)(C)Oc3c(Br)cc(C(=O)Nc4ccc(C(=O)O)c(F)c4)cc32)cc1 [AGN194301, 2-Fluoro-4-[(1-(8-bromo-2,2-dimethyl-4-(4-methylphenyl)-2-H-chromen-6-yl)-methanoyl)-amino]-benzoic acid]
concentrations inducing significant changes in activity of the RARE reporter (Bonferroni post-tests) ([1]; FIG. 1B, P at least <0.05): ≥ 100 nM
Sox9 mRNA expression (in words) (Sox9 mRNA): noticeable increase in Sox9 mRNA
cartilage nodule formation (in words) [2]: substantial increase in the number of cartilage nodules
concentrations giving significant differences in Sox9 reporter activity (Bonferroni post-tests) (pGL3(4×48) Sox9 reporter; FIG. 1A, P at least <0.05): ≥ 100 nM
greatest induction of Sox9 reporter activity (pGL3(4×48) Sox9 reporter; at 1 μM, primary limb mesenchymal cells): about 280%
effect on Sox9 reporter activity (in words) (pGL3(4×48) Sox9 reporter; concentration series): concentration-dependent increase in reporter activity

Structure (SMILES): Oc1ccc(-c2nc(-c3ccncc3)c(-c3ccc(F)cc3)[nH]2)cc1 [SB202190]
cartilage nodule formation (in words) [3, 4]: almost no cartilage nodules form
effect on Sox9 reporter activity (in words) (pGL3(4×48) Sox9 reporter; 5 or 10 μM): decrease in Sox9 reporter activity compared to untreated controls
effect on the antagonist-induced increase in Sox9 reporter activity (in words) (pGL3(4×48) Sox9 reporter): attenuated the chondrogenic response to AGN194301

Structure (SMILES): Nc1ncnc2c1nc(Sc1ccc(Cl)cc1)n2[C@@H]1O[C@@H]2COP(=O)(O)O[C@H]2[C@H]1O [pCPT-cAMP, 8-(4-chlorophenylthio)-cAMP]
increase in Sox9 reporter activity (pGL3(4×48) Sox9 reporter; 500 μM, absence of exogenous Sox9): about 4.5 fold
further increase in Sox9 reporter activity (pGL3(4×48) Sox9 reporter; co-transfection with wt Sox9 or Sox9-181A): < 1.5 fold

More lines, main results first:

maximal induction of Sox9 reporter activity (pGL3(4×48) Sox9 reporter; at 50 nM, primary limb mesenchymal cells): ~530%
concentration inducing Sox9 reporter activity greater than the maximal response elicited by 301 (pGL3(4×48) Sox9 reporter; concentrations as low as): ≥ 10 nM
Structure (SMILES): CCc1ccc(C2=CC(C)(C)Sc3ccc(C#Cc4ccc(C(=O)O)cc4)cc32)cc1 [AGN194310]
effect on RARE reporter activity (in words) [1]: attenuated by 310 more effectively than by 301
concentration at which increase in nodule formation can be observed ([3]; treatment for 4 days, alcian blue): 10 nM

effect on Sox9 reporter activity (in words) (pGL3(4×48) Sox9 reporter; 10 μM, absence of exogenous Sox9): repressed reporter activity
effect on Sox9 reporter activity (in words) (pGL3(4×48) Sox9 reporter; presence of co-transfected Sox9): slightly decreased reporter activity
Structure (SMILES): O=S(=O)(NCCNC/C=C/c1ccc(Br)cc1)c1cccc2cnccc12 [H89]
cartilage nodule formation (in words) [3, 4]: fewer nodules are detected compared to untreated cultures
effect on the antagonist-induced increase in Sox9 reporter activity (in words) (pGL3(4×48) Sox9 reporter): reduced Sox9 reporter activity both in the presence or absence of AGN194301 or dnRARα

effect on the antagonist-induced increase in Sox9 reporter activity (in words) (pGL3(4×48) Sox9 reporter): attenuated the 310-induced increase
Structure (SMILES): CC(/C=C/C(=O)NO)=C\[C@@H](C)C(=O)c1ccc(N(C)C)cc1 [TSA, Trichostatin A]
effect on RARE reporter activity (in words) [1]: enhanced activity of the pW1-αRARE3tkLuc reporter in a concentration-dependent manner
cartilage nodule formation (in words) [3, 5]: decrease in the number of cartilage nodules
effect on Sox9 reporter activity (in words) (pGL3(4×48) Sox9 reporter; concentration series): dose-dependent decrease in Sox9 reporter activity
IC50 (IL-2 gene expression): 0.073 µM

Sox9 reporter activity reduced to (% of control) (pGL3(4×48) Sox9 reporter; at 5 nM): 53%
effect on Sox9 reporter activity (in words) (pGL3(4×48) Sox9 reporter; concentration series): attenuated reporter activity
Structure (SMILES): CC1=C(/C=C/C(C)=C/C=C/C(C)=C/C(=O)O)C(C)(C)CCC1 [at-RA, All-trans RA]
effect on RARE reporter activity (in words) [1]: activated the RARβ reporter to a greater extent than about 836
cartilage nodule formation (in words) [3, 5]: more potent inhibitor of cartilage nodule formation than 836
